Among the data in DBAASP are MIC values, retold here.

Usually MIC stands for the smallest concentration in the dilution series that meets the test's criterion for growth inhibition. A lower MIC goes with inhibition by little substance.

In brackets after ≈: the same amount, converted by molar mass. Several values for one entry are separate records, joined by “and”; a condition that tells them apart may be missing. Equal entries are not always repeated.

Holding throughout (assay): ≥ marks a high value that may be exact or a test limit, other limits are often not marked, values filed in µg/mL are converted to µM
For assay [1], the system named is Escherichia coli D31.
Assay [2] has as its system Listeria fleischmannii DSM 24998.
Assay [3] relates to Listeria grayi DSM 20601.
The test system of assay [4] is Listeria monocytogenes DSM 20600.
Assay [5] relates to Micrococcus luteus DSM 20030.
Assay [6] has as its system Bacillus subtilis KCTC 3068.
Assay [7] relates to Escherichia coli DSM 1103.
Assay [8] has as its system Escherichia coli KCTC 1682.
Assay [9] concerns Pseudomonas aeruginosa DSM 1117.
Assay [10] deals with Pseudomonas aeruginosa KCTC 1637.
Assay [11] has as its system Salmonella typhimurium KCTC 1926.
The subject of assay [12] is Staphylococcus aureus DSM 1104.
Assay [13] relates to Staphylococcus aureus KCTC 1621.
For assay [14], the system named is Staphylococcus epidermidis DSM 1798.
In assay [15] the test system is Staphylococcus epidermidis KCTC 1917.
Assay [16] relates to Acinetobacter baumannii.
The test system of assay [17] is Enterococcus faecalis.
Assay [18] deals with Pseudomonas aeruginosa 1.
Assay [19] relates to Pseudomonas aeruginosa.
Assay [20] concerns Staphylococcus aureus.
In assay [21] the test system is Bacillus subtilis.
Assay [22] relates to Enterococcus faecalis ATCC 29212.
Assay [23] relates to Escherichia coli.
For assay [24], the system named is Klebsiella pneumoniae ATCC 13883.
In assay [25] the test system is Pseudomonas aeruginosa ATCC 27853.
Assay [26] has as its system Salmonella enterica subsp. enterica serovar Typhimurium ATCC 14028.
In assay [27] the test system is Staphylococcus aureus ATCC 25923.
Assay [28] deals with Streptococcus pyogenes ATCC 19615.
Assay [29] concerns Escherichia coli ATCC 25922.
For assay [30], the system named is Escherichia coli K88.
In assay [31] the test system is Escherichia coli K99.
Assay [32] deals with Escherichia coli UB1005.
Assay [33] concerns Lacticaseibacillus rhamnosus 1.0385.
Assay [34] relates to Lacticaseibacillus rhamnosus 1.0911.
Assay [35] concerns Lacticaseibacillus rhamnosus 1.0936.
The subject of assay [36] is Lacticaseibacillus rhamnosus 7469.
For assay [37], the system named is Lactiplantibacillus plantarum 8014.
Assay [38] relates to Salmonella enterica subsp. enterica serovar Pullorum C79-13.
Assay [39] has as its system Salmonella enterica subsp. enterica serovar Typhimurium C77-31.
The subject of assay [40] is Staphylococcus aureus ATCC 43300.

Regarding `CC[C@H](C)[C@H](NC(=O)[C@H](C)NC(=O)[C@H](CC(N)=O)NC(=O)[C@H](CCCCN)NC(=O)[C@@H](NC(=O)CNC(=O)[C@H](CCC(=O)O)NC(=O)[C@H](Cc1c[nH]c2ccccc12)NC(=O)[C@H](CC(C)C)NC(=O)[C@H](CCCCN)NC(=O)CNC(=O)[C@H](Cc1c[nH]c2ccccc12)NC(=O)[C@H](Cc1ccccc1)NC(=O)CN)C(C)C)C(=O)N[C@@H](CCCCN)C(=O)N[C@@H](CCCCN)C(=O)N[C@@H](CCCCN)C(N)=O` [GFWGKLWEGVKNAIKKK], the MIC came to 4 µM (≈ 7.95 µg/mL) in assay [1]; 1 µM (≈ 1.99 µg/mL) in [2]; 1 µM (≈ 1.99 µg/mL) in [3]; 2 µM (≈ 3.98 µg/mL) in [4]; 0.25 µM (≈ 0.497 µg/mL) in assay [5].

On to `CC[C@H](C)[C@H](NC(=O)[C@H](C)NC(=O)[C@H](CCCCN)NC(=O)[C@H](CCCCN)NC(=O)[C@@H](NC(=O)[C@@H]1CCCN1C(=O)[C@H](CCCCN)NC(=O)[C@H](Cc1c[nH]c2ccccc12)NC(=O)[C@H](CC(C)C)NC(=O)[C@H](CCCCN)NC(=O)CNC(=O)[C@H](Cc1c[nH]c2ccccc12)NC(=O)[C@H](Cc1ccccc1)NC(=O)CN)C(C)C)C(N)=O` [GFWGKLWKPVKKAI], for which the MIC in [2] is 15 µM (≈ 24.9 µg/mL); in assay [3] it was 8 µM (≈ 13.3 µg/mL); in assay [4] it was 30 µM (≈ 49.7 µg/mL); in [5], 2 µM (≈ 3.31 µg/mL).

Regarding `NCCCC[C@H](NC(=O)[C@H](CCCN=C(N)N)NC(=O)CN)C(=O)N[C@@H](CCCCN)C(=O)N[C@@H](CCCN=C(N)N)C(=O)N[C@@H](CCCN=C(N)N)C(=O)N[C@@H](CCC(N)=O)C(=O)N[C@@H](CCCN=C(N)N)C(=O)N[C@@H](CCCN=C(N)N)C(=O)N[C@@H](CCCN=C(N)N)C(=O)N1CCC[C@H]1C(=O)N1CCC[C@H]1C(=O)N[C@@H](CCC(N)=O)C(=O)O` [GRKKRRQRRRPPQ], the MIC is 4 µM (≈ 6.88 µg/mL) in [6]; ≥ 128 µM in [7]; 2 µM (≈ 3.44 µg/mL) in [8]; ≥ 128 µM in assay [9]; 4 µM (≈ 6.88 µg/mL) in [10]; 8 µM (≈ 13.8 µg/mL) in assay [11]. The MIC is ≥ 128 µM in assay [12], 4 µM (≈ 6.88 µg/mL) in assay [13], ≥ 128 µM in assay [14] and 4 µM (≈ 6.88 µg/mL) in assay [15].

On to `CC(C)C[C@H](NC(=O)[C@H](CC(C)C)NC(=O)[C@H](CCCCN)NC(=O)[C@H](CCCCN)NC(=O)[C@H](CC(C)C)NC(=O)[C@H](CCCCN)NC(=O)[C@H](CCCCN)NC(=O)[C@H](CC(C)C)NC(=O)[C@H](CC(C)C)NC(=O)[C@H](CCCCN)NC(=O)[C@H](CCCN=C(N)N)NC(=O)[C@H](Cc1c[nH]c2ccccc12)NC(=O)[C@H](CCCCN)NC(=O)[C@@H](N)CCCCN)C(N)=O` [KKWRKLLKKLKKLL], for which the MIC in [16] is 0.548 µM (≈ 0.999 µg/mL); in assay [17] it was 0.658 µM (≈ 1.2 µg/mL); in [18], 1.55 µM (≈ 2.83 µg/mL); in assay [19] it was 0.548 µM (≈ 0.999 µg/mL); in assay [20] it was 1.1 µM (≈ 2 µg/mL).

For `CC(C)C[C@H](NC(=O)[C@H](Cc1c[nH]c2ccccc12)NC(=O)[C@H](CCC(N)=O)NC(=O)[C@@H](NC(=O)[C@H](CCC(N)=O)NC(=O)[C@@H]1CCCN1C(=O)[C@H](CCC(=O)O)NC(=O)[C@H](CCCN=C(N)N)NC(=O)[C@@H](N)CCC(N)=O)C(C)C)C(=O)N[C@@H](CCC(=O)O)C(=O)N[C@@H](CCC(N)=O)C(=O)N[C@@H](CCC(N)=O)C(=O)N[C@H](C(=O)N[C@@H](C)C(=O)N[C@@H](CCCCN)C(=O)N[C@@H](CCCN=C(N)N)C(=O)N[C@@H](CCCN=C(N)N)C(=O)N[C@H](C(=O)N[C@@H](CCCCN)C(=O)N[C@@H](CCCN=C(N)N)C(=O)O)[C@@H](C)O)C(C)C` [QREPQVQWLEQQVAKRRTKR], the MIC was ≥ 100 µM in [21]; > 100 µM in assay [22]; > 100 µM in assay [23]; ≥ 100 µM in [24]; > 100 µM in assay [25]; > 100 µM in [26]. The values for the MIC in [27] and in [28] were > 100 µM and ≥ 100 µM, respectively.

Take `CC(C)C[C@H](NC(=O)[C@H](C)NC(=O)[C@H](CCCN=C(N)N)NC(=O)[C@H](CC(C)C)NC(=O)[C@H](C)NC(=O)[C@H](CC(C)C)NC(=O)[C@H](CCCN=C(N)N)NC(=O)[C@H](CC(C)C)NC(=O)[C@H](C)NC(=O)[C@H](CC(C)C)NC(=O)[C@@H](N)CCCN=C(N)N)C(=O)N[C@@H](CCCN=C(N)N)C(=O)N[C@@H](C)C(=O)N[C@@H](C)C(=O)N[C@@H](CC(C)C)C(=O)N[C@@H](CCCN=C(N)N)C(=O)N[C@@H](CC(C)C)C(=O)N[C@@H](C)C(N)=O` [RLALRLALRALRAALRLA]: the MIC in assay [7] was ≥ 57 µM; in assay [9], ≥ 115 µM; in assay [12], 29 µM (≈ 58.5 µg/mL); in assay [14], 4 µM (≈ 8.07 µg/mL).

With `NC(=O)[C@H](CCCN=C(N)N)NC(=O)[C@H](CCCN=C(N)N)NC(=O)[C@H](Cc1c[nH]c2ccccc12)NC(=O)[C@H](Cc1c[nH]c2ccccc12)NC(=O)[C@H](Cc1c[nH]c2ccccc12)NC(=O)[C@@H](N)CCCN=C(N)N` [RWWWRR], the MIC in [29] was 23.9 µM and 32 µM; in assay [30] it was ≥ 32 µM; in assay [31], ≥ 32 µM; in [32], ≥ 32 µM; in assay [33] it was ≥ 64 µM; in assay [34], ≥ 64 µM. In addition, the minimal inhibitory concentration (MIC) in [35] was ≥ 64 µM; in [36] it was ≥ 64 µM; in assay [37], ≥ 64 µM; in assay [25], > 64 µM; in [38], ≥ 64 µM; in assay [26], > 64 µM. The MIC in assay [39] was ≥ 64 µM; in assay [40], 8 µM (≈ 8.35 µg/mL).
